Results reported in patent US20240366639A1, “HETEROCYCLIC GLP-1 AGONISTS” (GASHERBRUM BIO, INC., priority 2021, published 2024).
Like-named read-outs stand apart in the source and are kept apart here.

Target: T1, GLP-1 Receptor (GLP1R) (Homo sapiens, UniProt P43220)
T1 construct: host or cells: HEK293/GLP1R/CRE-LUC
Assay: GLP-1R agonist cAMP stimulation assay (Method 3)
Assay type: cell-based
Settings: HEK293/GLP1R/CRE-LUC cells (HDB), Method 3, 30 min incubation
How it was run: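 HEK293 CRE-Luc cells stably expressing GLP-1R (1000 cells/well) were exposed to ½-log serially diluted compound in DPBS with 0.5 mM IBMX and 0.1% BSA for 30 min at 37 °C. cAMP was quantified by HTRF (cAMP-d2/anti-cAMP cryptate), 1 h at room temperature, read at 665/615 nm.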

[1] = read-out: GLP1R cAMP Stimulation DR: EC50 (nM) [Species: Human, Assay Cell Line: HDB]
[2] = read-out: GLP1R cAMP Stimulation DR: pEC50 (M) [Species: Human, Assay Cell Line: HDB] (converted)

T1 sequence (P43220 24-463): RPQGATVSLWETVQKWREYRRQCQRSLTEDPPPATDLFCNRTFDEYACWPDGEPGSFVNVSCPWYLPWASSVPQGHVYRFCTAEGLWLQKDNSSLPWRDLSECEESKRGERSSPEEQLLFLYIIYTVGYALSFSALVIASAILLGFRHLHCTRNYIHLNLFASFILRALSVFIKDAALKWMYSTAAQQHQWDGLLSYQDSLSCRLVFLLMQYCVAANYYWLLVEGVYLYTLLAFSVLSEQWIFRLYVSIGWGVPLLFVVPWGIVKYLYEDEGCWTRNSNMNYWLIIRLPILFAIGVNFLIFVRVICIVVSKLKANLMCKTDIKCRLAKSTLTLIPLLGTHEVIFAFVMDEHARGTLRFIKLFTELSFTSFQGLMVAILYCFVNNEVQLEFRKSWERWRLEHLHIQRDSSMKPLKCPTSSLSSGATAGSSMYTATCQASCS

Row | SMILES | EC50 [1] [nM] | EC50 [2] [nM]
1 | CCP(=O)(CC)c1c(F)cc(-n2ccn(-c3c4c(nn3-c3cc(C)c(F)c(C)c3)CCN(C(=O)c3cc5cc(C6CCOCC6)ccc5n3[C@@]3(c5noc(=O)[nH]5)C[C@@H]3C)[C@H]4C)c2=O)cc1NC [Compound 143a, 3-((1S,2S)-1-(2-((S)-3-(3-(4-(diethylphosphoryl)-3-fluoro-5-(methylamino)phenyl)-2-oxo-2,3-dihydro-1H-imidazol-1-yl)-2-(4-fluoro-3,5-dimethylphenyl)-4-methyl-4,5,6,7-tetrahydro-2H-pyrazolo[4,3-c]pyridine-5-carbonyl)-5-(tetrahydro-2H-pyran-4-yl)-1H-indol-1-yl)-2-methylcyclopropyl)-1,2,4-oxadiazol-5(4H)-one] | 0.1 to 0.2 | 0.1 to 1
2 | CCP(=O)(CC)c1cc(F)c(-n2ccn(-c3c4c(nn3-c3cc(C)c(F)c(C)c3)CCN(C(=O)c3cc5cc(C6CCOCC6)ccc5n3[C@@]3(c5noc(=O)[nH]5)C[C@@H]3C)[C@H]4C)c2=O)cc1NC [Compound 144a, 3-((1S,2S)-1-(2-((S)-3-(3-(4-(diethylphosphoryl)-2-fluoro-5-(methylamino)phenyl)-2-oxo-2,3-dihydro-1H-imidazol-1-yl)-2-(4-fluoro-3,5-dimethylphenyl)-4-methyl-4,5,6,7-tetrahydro-2H-pyrazolo[4,3-c]pyridine-5-carbonyl)-5-(tetrahydro-2H-pyran-4-yl)-1H-indol-1-yl)-2-methylcyclopropyl)-1,2,4-oxadiazol-5(4H)-one] | < 0.1 | ≤ 0.1
3 | CCP(=O)(CC)c1ccc(-n2ccn(-c3c4c(nn3-c3cc(C)c(F)c(C)c3)CCN(C(=O)c3cc5cc(C6CCOCC6)ccc5n3[C@@]3(c5noc(=O)[nH]5)C[C@@H]3C)[C@H]4C)c2=O)c(F)c1NC [Compound 145a, 3-((1S,2S)-1-(2-((S)-3-(3-(4-(diethylphosphoryl)-2-fluoro-3-(methylamino)phenyl)-2-oxo-2,3-dihydro-1H-imidazol-1-yl)-2-(4-fluoro-3,5-dimethylphenyl)-4-methyl-4,5,6,7-tetrahydro-2H-pyrazolo[4,3-c]pyridine-5-carbonyl)-5-(tetrahydro-2H-pyran-4-yl)-1H-indol-1-yl)-2-methylcyclopropyl)-1,2,4-oxadiazol-5(4H)-one] | < 0.1 | ≤ 0.1
4 | CCP(=O)(CC)c1ccc(-n2ccn(-c3c4c(nn3-c3cc(C)c(F)c(C)c3)CCN(C(=O)c3cc5cc([C@@H]6CCOC(C)(C)C6)ccc5n3[C@@]3(c5noc(=O)[nH]5)C[C@@H]3C)[C@H]4C)c2=O)cc1NC [Compound 146a, 3-((1S,2S)-1-(2-((S)-3-(3-(4-(diethylphosphoryl)-3-(methylamino)phenyl)-2-oxo-2,3-dihydro-1H-imidazol-1-yl)-2-(4-fluoro-3,5-dimethylphenyl)-4-methyl-4,5,6,7-tetrahydro-2H-pyrazolo[4,3-c]pyridine-5-carbonyl)-5-((R)-2,2-dimethyltetrahydro-2H-pyran-4-yl)-1H-indol-1-yl)-2-methylcyclopropyl)-1,2,4-oxadiazol-5(4H)-one] | < 0.1 | ≤ 0.1
5 | CCP(=O)(CC)c1ccc(-n2ccn(-c3c4c(nn3-c3cc(C)c(F)c(C)c3)CCN(C(=O)c3cc5cc([C@H]6CCOC(C)(C)C6)ccc5n3[C@@]3(c5noc(=O)[nH]5)C[C@@H]3C)[C@H]4C)c2=O)cc1NC [Compound 146b, 3-((1S,2S)-1-(2-((S)-3-(3-(4-(diethylphosphoryl)-3-(methylamino)phenyl)-2-oxo-2,3-dihydro-1H-imidazol-1-yl)-2-(4-fluoro-3,5-dimethylphenyl)-4-methyl-4,5,6,7-tetrahydro-2H-pyrazolo[4,3-c]pyridine-5-carbonyl)-5-((S)-2,2-dimethyltetrahydro-2H-pyran-4-yl)-1H-indol-1-yl)-2-methylcyclopropyl)-1,2,4-oxadiazol-5(4H)-one] | < 0.1 | ≤ 0.1
6 | Cc1cc(-n2nc3c(c2-n2ccn(Cc4cccc(P(C)(C)=O)c4)c2=O)[C@H](C)N(C(=O)c2cc4cc(C5CCOCC5)ccc4n2[C@@]2(c4noc(=O)[nH]4)C[C@@H]2C)CC3)cc(C)c1F [Compound 147a, 3-((1S,2S)-1-(2-((S)-3-(3-(3-(dimethylphosphoryl)benzyl)-2-oxo-2,3-dihydro-1H-imidazol-1-yl)-2-(4-fluoro-3,5-dimethylphenyl)-4-methyl-4,5,6,7-tetrahydro-2H-pyrazolo[4,3-c]pyridine-5-carbonyl)-5-(tetrahydro-2H-pyran-4-yl)-1H-indol-1-yl)-2-methylcyclopropyl)-1,2,4-oxadiazol-5(4H)-one] | 0.5 to 5 | 1 to 10
7 | CNc1cc(-n2ccn(-c3c4c(nn3-c3cc(C)c(F)c(C)c3)CCN(C(=O)c3cc5cc(C6CCOCC6)ccc5n3C3(c5noc(=O)[nH]5)CC3)[C@H]4C)c2=O)ccc1P(=O)(C1CC1)C1CC1 [Compound 148a, (S)-3-(1-(2-(3-(3-(4-(dicyclopropylphosphoryl)-3-(methylamino)phenyl)-2-oxo-2,3-dihydro-1H-imidazol-1-yl)-2-(4-fluoro-3,5-dimethylphenyl)-4-methyl-4,5,6,7-tetrahydro-2H-pyrazolo[4,3-c]pyridine-5-carbonyl)-5-(tetrahydro-2H-pyran-4-yl)-1H-indol-1-yl)cyclopropyl)-1,2,4-oxadiazol-5(4H)-one] | < 0.1 | ≤ 0.1
8 | CCP(=O)(CC)c1ccc(-n2ccn(-c3c4c(nn3-c3cc(C)c(F)c(C)c3)CCN(C(=O)c3cc5cc(N6CCOC(C)(C)C6)ccc5n3[C@@]3(c5noc(=O)[nH]5)C[C@@H]3C)[C@H]4C)c2=O)cc1NC [Compound 150a, 3-((1S,2S)-1-(2-((S)-3-(3-(4-(diethylphosphoryl)-3-(methylamino)phenyl)-2-oxo-2,3-dihydro-1H-imidazol-1-yl)-2-(4-fluoro-3,5-dimethylphenyl)-4-methyl-4,5,6,7-tetrahydro-2H-pyrazolo[4,3-c]pyridine-5-carbonyl)-5-(2,2-dimethylmorpholino)-1H-indol-1-yl)-2-methylcyclopropyl)-1,2,4-oxadiazol-5(4H)-one] | 0.1 to 0.2 | 0.1 to 1
